Each structure is given as a SMILES string.

This assay addresses T1, CCR2 (Homo sapiens, UniProt P41597).
T1 construct: Membranes were prepared from THP-1 cells; endogenous in cells; host or cells: THP-1 (human acute monocytic leukaemia cells), membrane preparation
T1 sequence (P41597 1-360 isoform P41597-2): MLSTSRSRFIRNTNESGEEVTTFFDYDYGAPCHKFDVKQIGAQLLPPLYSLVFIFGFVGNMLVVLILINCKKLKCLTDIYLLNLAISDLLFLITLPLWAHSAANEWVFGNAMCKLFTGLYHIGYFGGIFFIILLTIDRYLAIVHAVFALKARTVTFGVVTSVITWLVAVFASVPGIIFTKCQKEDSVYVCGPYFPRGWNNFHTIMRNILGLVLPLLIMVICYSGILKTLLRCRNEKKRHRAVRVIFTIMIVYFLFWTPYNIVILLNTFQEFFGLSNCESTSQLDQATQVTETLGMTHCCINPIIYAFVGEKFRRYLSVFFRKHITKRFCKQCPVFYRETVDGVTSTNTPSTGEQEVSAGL
As to the kind of experiment: CCR2 receptor membrane binding assay ([125I]MCP-1, THP-1 membranes, SPA beads). The note with it: THP-1 cell membranes, [125I]MCP-1 displacement, dissociation constant hKi. The procedure:
The above exemplary substances have been tested for binding to CCR2 using a binding assay as outlined herein below:
THP-1 cells (human acute monocytic leukaemia cells) were cultured under standardized conditions at 37° C. and 5% CO2 in a humidified incubator. THP-1 cells were cultivated in RPMI 1640 medium (Gibco 21875) containing 1% MEM-NEAA (Gibso 11140) 2 mM L-glutamine, 1.5 g/L sodium bicarbonate, 4.5 g/L glucose, 10 mM HEPES and 1.0 mM sodium pyruvate, 90%; 10% fetal calf serum (FCS Gibco 10500-064).
Membranes were prepared from THP-1 cells. THP-1 cells were centrifuged at 300×g at 4° C. for 10 min. The cell pellet was resuspendet in Phosphate Buffer Saline (PBS, including 10 μM Pefabloc and a protease inhibitor mix ‘complete’, Boehringer Mannheim (1 tablet/50 ml)), to a concentration of […]. The membrane preparation was performed by disrupting the cells by nitrogen […] (at 50 bar, for 1 h) in a “Nitrogen Bombe” (Parr Instrument). Cell debris was removed by centrifugation (800×g at 4° C., 1 min). The supernatant was centrifuged at 80000×g, 4° C. for 30 min to sediment the cell membranes. Usually 50 mg of protein (Bradford assay) were yielded from 1×10E9 cells. The membranes were resuspendet in 25 mM HEPES, 25 mM MgCl2, 1 mM CaCl2, 10% Glycerine for storage in aliquots at −80° C. in 25 mM HEPES, 25 mM MgCl2, 1 mM CaCl2, 10% Glycerine and stored at −80° C.
Perkin Elmer NEX 332 Jod 125 MCP-1, Stock: 2200 Ci/mmol solved in 2000 μl assay buffer, stored at −20° C. THP-1 membrane were adjusted with 25 mM HEPES, pH 7.2; 5 mM MgCl2; 0.5 mM CaCl2; 0.2% BSA assay buffer to a concentration of 2.5 μg/15 μl. Amersham Biosciences PVT-WGA Beads (RPNQ0001) were adjusted with assay buffer to a concentration of 0.24 mg/30 μl. For preparation of the membrane-bead-suspension membranes and beads were incubated for 30 min at RT under rotation (60 rpm) with a ratio of 1:2. Test compounds dissolved in 100% DMSO to a concentration of 10 mM and are further diluted with 100% DMSO to 1 mM. All additional compound dilutions were obtained with assay buffer, final 1% DMSO. Compounds, membrane-bead-suspension and [125I]MCP-1 (ca. 25000 cpm/10 μl) were incubated. Bound radioactivity was determined by scintillation counter after 8 h. Determination of affinity of test compounds (dissociation constant hKi) is calculated by iterative fitting of experimental data using the “easy sys” program, which is based on law of mass action (Schittkowski K. (1994), Numerische Mathematik, Vol. 68, 129-142).
For `COc1c(NC[C@H]2CCC[C@@H](c3ccc(C(F)(F)F)cc3)O2)ncnc1C(=O)N1CCC(NC2CCOCC2F)CC1` (some centres unmarked) [Example 10l], the affinity corresponds to a Ki of 4 nM.
With `COc1c(NC[C@H]2CCC[C@@H](c3ccccc3)C2)ncnc1C(=O)N1CCC(N2CCC(N(C)S(C)(=O)=O)CC2)CC1` [Example 3] the figure was 5 nM.
As for `COc1c(NC[C@H]2CCC[C@@H](c3ccc(Cl)cc3)O2)ncnc1C(=O)N1CCC(N[C@H]2CCOC[C@H]2OC)CC1` [Example 10g], the Ki was 7 nM.
The value for `COc1c(NC[C@H]2CCC[C@@H](c3ccc(C)cc3)O2)ccnc1C(=O)N1CCC(N[C@H]2CCOC[C@H]2OC)CC1` [Example 15] was 13 nM; that for `COc1c(NC[C@H]2CCC[C@@H](c3ccc(Cl)cc3)O2)ncnc1C(=O)N1CCC(N[C@@H]2CCOC[C@@H]2OC)CC1` [Example 10e] was 10 nM; that for `COc1c(NC[C@H]2CCC[C@@H](c3ccc(C)cc3)O2)ccnc1C(=O)N1CCC(N[C@@H]2CCOC[C@@H]2OC)CC1` [Example 16] was 22 nM.
With `COc1c(NC[C@H]2CCC[C@@H](c3ccc(OC(F)(F)F)cc3)O2)ncnc1C(=O)N1CCC(N[C@H]2CCOC[C@H]2OC)CC1` [Example 10j], the affinity corresponds to a Ki of 1 nM.
The value for `COc1c(NC[C@H]2CCC[C@@H](c3ccccc3)C2)ncnc1C(=O)N1CCC(N(C)C2CCOCC2OC)CC1` (some centres unmarked) [Example 14] was 16 nM.
`COc1c(NC[C@@H]2CCC[C@H](c3ccc(Cl)cc3)O2)ncnc1C(=O)N1CCC(N2CCC(N(C)S(C)(=O)=O)CC2)CC1` [Example 10c] had a Ki of 377 nM.
The value for `CN(C1CCN(C2CCN(C(=O)c3ncnc(NCc4ccc(C(C)(C)C)cc4)c3C3CC3)CC2)CC1)S(C)(=O)=O` [Example 2] was 82 nM; that for `COc1c(NC[C@H]2CCC[C@@H](c3ccc(C)cc3)O2)ncnc1C(=O)N1CCC(N[C@@H]2CCOC[C@@H]2OC)CC1` [Example 6] was 18 nM.
The value for `COc1c(NC[C@H]2CCC[C@@H](c3cccc(C)c3)O2)ncnc1C(=O)N1CCC(N[C@@H]2CCOC[C@@H]2OC)CC1` [Example 9] was 25 nM; that for `COc1c(NC[C@H]2CCC[C@@H](c3ccc(OC(F)(F)F)cc3)O2)ncnc1C(=O)N1CCC(NC2CCOCC2F)CC1` (some centres unmarked) [Example 10m] was 1 nM; that for `COc1c(NC[C@H]2CCC[C@@H](c3ccc(C)cc3)O2)ncnc1C(=O)N1CCC(N2CCC(N(C)S(C)(=O)=O)CC2)CC1` [Example 5] was 84 nM.
As for `COc1c(NC[C@H]2CCC[C@@H](c3ccc(Cl)cc3)O2)ncnc1C(=O)N1CCC(N2CCC(N(C)S(C)(=O)=O)CC2)CC1` [Example 10f], affinity was put at a Ki of 60 nM.
Regarding `COc1c(NC[C@H]2CCC[C@@H](c3ccc(C)cc3)O2)ncnc1C(=O)N1CCC(N[C@H]2CCOC[C@H]2OC)CC1` [Example 7], the Ki was 13 nM.
With `COc1c(NC[C@H]2CCC[C@@H](c3cccc(C)c3)O2)ncnc1C(=O)N1CCC(N[C@H]2CCOC[C@H]2OC)CC1` [Example 10] the figure was 19 nM; with `COc1c(NC[C@@H]2CCC[C@H](c3ccc(Cl)cc3)O2)ncnc1C(=O)N1CCC(N[C@H]2CCOC[C@H]2OC)CC1` [Example 10d], 120 nM.
Take `COc1c(NC[C@H]2CCC[C@@H](c3ccc(OC(F)(F)F)cc3)O2)ncnc1C(=O)N1CCC(N[C@@H]2CCOC[C@@H]2OC)CC1` [Example 10k]: the affinity corresponds to a Ki of 2 nM.
In turn, `COc1c(NCc2ccc(C(C)(C)C)cc2)ncnc1C(=O)N1CCC(N2CCC(N(C)S(C)(=O)=O)CC2)CC1` [Example 10a] gave an inhibition constant Ki of 121 nM.
In turn, `COc1c(NC[C@H]2CCC[C@@H](c3ccccc3)C2)ncnc1C(=O)N1CCC(N[C@@H]2CCOC[C@@H]2OC)CC1` [Example 11] came in with a Ki of 12 nM.
In the case of `COc1c(NCC2CCCC(c3ccccc3)C2)ncnc1C(=O)N1CCC(N2CCC(N(C)S(C)(=O)=O)CC2)CC1` (centres unmarked) [Example 4], affinity was put at a Ki of 15 nM.
For the compound `COc1c(NC[C@H]2CCC[C@@H](c3ccc(C(F)(F)F)cc3)O2)ncnc1C(=O)N1CCC(N[C@H]2CCOC[C@H]2OC)CC1` [Example 10h], the inhibition constant Ki is 1 nM.
The value for `COc1c(NC[C@H]2CCC[C@@H](c3ccc(C(F)(F)F)cc3)O2)ncnc1C(=O)N1CCC(N[C@@H]2CCOC[C@@H]2OC)CC1` [Example 10i] was 3 nM; that for `COc1c(NC[C@H]2CCC[C@@H](c3ccccc3)C2)ncnc1C(=O)N1CCC(NC2CCOCC2OC)CC1` (some centres unmarked) [Example 13] was 5 nM; that for `COc1c(NC[C@H]2CCC[C@@H](c3ccccc3)C2)ncnc1C(=O)N1CCC(N[C@H]2CCOC[C@H]2OC)CC1` [Example 12] was 5 nM.
The compound `CN(C1CCN(C2CCN(C(=O)c3ncnc(NC[C@H]4CCC[C@@H](c5ccccc5)C4)c3C3CC3)CC2)CC1)S(C)(=O)=O` [Example 1] yielded an inhibitory constant (Ki) of 9 nM.
With `COc1c(NC[C@@H]2CCC[C@H](c3ccc(Cl)cc3)O2)ncnc1C(=O)N1CCC(N[C@@H]2CCOC[C@@H]2OC)CC1` [Example 10b] the figure was 162 nM.
The compound `COc1c(NC[C@H]2CCC[C@@H](c3cccc(C)c3)O2)ncnc1C(=O)N1CCC(N2CCC(N(C)S(C)(=O)=O)CC2)CC1` [Example 8] came in with an inhibitory constant (Ki) of 73 nM.

For the origin of these results see patent publication US20130143905A1, “NOVEL ANTAGONISTS FOR CCR2 AND USES THEREOF” (BOEHRINGER INGELHEIM INTERNATIONAL GMBH, priority 2009, published 2013).
